Results published in ChEMBL document CHEMBL4610052, “Application of tandem biotransformation for biosynthesis of new pentacyclic triterpenoid derivatives with neuroprotective effect” (Bioorg Med Chem Lett, 2020).

Tested on: PC-12
Experiment: Neuroprotective activity against CoCl2-induced neuronal injury in rat PC12 cells
Type: functional, cell-based

CC1(C)[C@@H](O)CC[C@]2(C)[C@H]3C(=O)C=C4[C@@H]5C[C@@](C)(C(=O)O[C@@H]6O[C@H](CO)[C@@H](O)[C@H](O)[C@H]6O)CC[C@]5(C)CC[C@@]4(C)[C@]3(C)[C@@H](O)C[C@@H]12
EC50: > 40 µM

CC1(C)[C@@H](O)CC[C@]2(C)[C@H]3CC=C4[C@@H]5C[C@](C)(C(=O)O)[C@@H](O)C[C@]5(C(=O)O)CC[C@@]4(C)[C@]3(C)[C@@H](O)C[C@@H]12
EC50: 0.48 µM

CC1(C)[C@@H](O)CC[C@]2(C)[C@H]3C(=O)C=C4[C@@H]5C[C@@](C)(C(=O)O[C@@H]6O[C@H](CO)[C@@H](O)[C@H](O)[C@H]6O)CC[C@]5(C)CC[C@@]4(C)[C@]3(C)CC[C@@H]12
EC50: > 40 µM

CC1(C)C[C@H]2C3=CC[C@@H]4[C@@]5(C)CC[C@H](O[C@H]6O[C@@H](CO)[C@H](O)[C@@H](O)[C@@H]6O)C(C)(C)[C@@H]5C[C@H](O)[C@@]4(C)[C@]3(C)CC[C@@]2(C(=O)O)C[C@@H]1O
EC50: > 40 µM

CC1(C)[C@@H](O)CC[C@]2(C)[C@H]3C(=O)C=C4[C@@H]5C[C@@](C)(C(=O)O)CC[C@]5(C)CC[C@@]4(C)[C@]3(C)[C@@H](O)C[C@@H]12
EC50: 1.76 µM

CC1(C)[C@@H](O)CC[C@]2(C)[C@H]3CC=C4[C@@H]5C[C@](C)(CO)[C@@H](O)C[C@]5(C(=O)O)CC[C@@]4(C)[C@]3(C)[C@@H](O)C[C@@H]12
EC50: 7.74 µM

CC1(C)C[C@H]2C3=CC[C@@H]4[C@@]5(C)CC[C@H](O)C(C)(C)[C@@H]5C[C@H](O)[C@@]4(C)[C@]3(C)CC[C@@]2(C(=O)O)C[C@@H]1O
EC50: > 40 µM

CC1(C)[C@@H](O)CC[C@]2(C)[C@H]3C(=O)C=C4[C@@H]5C[C@@](C)(C(=O)O)CC[C@]5(C)CC[C@@]4(C)[C@]3(C)CC[C@@H]12 [ENOXOLONE]
EC50: 0.89 µM

CC1(C)CC[C@]2(C(=O)O)CC[C@]3(C)C(=CC[C@@H]4[C@@]5(C)CC[C@H](O)C(C)(C)[C@@H]5CC[C@]43C)[C@@H]2C1 [OLEANOLIC_ACID]
EC50: 8.55 µM

OC[C@H]1O[C@@H](OCCc2ccc(O)cc2)[C@H](O)[C@@H](O)[C@@H]1O [SALIDROSIDE]
EC50: 0.21 µM
